According to US10988523B2, “Modified lipidated Relaxin B chain peptides and their therapeutic use” (Sanofi, priority 2018, dated 2021):
*1 amine or outer side, *2 acyl side, *3 side chain or, on linkers, in order; H or OH if unused. Where a SMILES comes first, the peptide text is derived from it. Primed or numbered codes have the meaning given here. Side-chain parts run from the residue outwards. [ ]: non-standard residue; d: D form. The star is where a group is joined. γGlu = O=C(O)[C@H](CCC(=O)[*:2])N[*:1]; Stearoyl = CCCCCCCCCCCCCCCCCC(=O)*; Palmitoyl = CCCCCCCCCCCCCCCC(=O)*; Nle = CCCC[C@H](N)C(=O)O; PEG2″ = not defined here; Aib = CC(C)(N)C(=O)O

Biological target: T1, RXFP1 (Homo sapiens, UniProt Q9HBX9)
T1 construct: OVCAR5 cells expressing endogenous RXFP1; endogenous in cells; host or cells: OVCAR5 cells
T1 sequence (Q9HBX9 1-757): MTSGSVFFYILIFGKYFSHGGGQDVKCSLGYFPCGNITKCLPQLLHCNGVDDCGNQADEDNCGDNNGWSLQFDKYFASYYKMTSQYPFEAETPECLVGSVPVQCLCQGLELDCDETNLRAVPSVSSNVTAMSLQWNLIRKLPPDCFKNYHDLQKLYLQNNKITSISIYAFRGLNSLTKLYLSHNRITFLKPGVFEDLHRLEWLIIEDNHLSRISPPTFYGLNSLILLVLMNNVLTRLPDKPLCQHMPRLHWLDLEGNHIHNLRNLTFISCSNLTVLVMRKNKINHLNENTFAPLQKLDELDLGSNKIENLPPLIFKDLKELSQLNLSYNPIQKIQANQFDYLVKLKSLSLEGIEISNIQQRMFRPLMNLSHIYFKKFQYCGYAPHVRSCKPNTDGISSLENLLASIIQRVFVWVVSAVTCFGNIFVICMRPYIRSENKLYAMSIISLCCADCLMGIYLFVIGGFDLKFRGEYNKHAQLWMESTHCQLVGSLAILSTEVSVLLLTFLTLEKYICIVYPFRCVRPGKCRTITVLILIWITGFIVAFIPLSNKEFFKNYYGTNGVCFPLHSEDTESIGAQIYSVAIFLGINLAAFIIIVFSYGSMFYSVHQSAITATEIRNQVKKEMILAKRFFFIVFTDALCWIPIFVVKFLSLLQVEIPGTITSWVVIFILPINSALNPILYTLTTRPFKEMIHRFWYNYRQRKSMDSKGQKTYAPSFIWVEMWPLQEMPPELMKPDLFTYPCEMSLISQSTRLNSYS
Experiment: OVCAR5 cAMP assay (HTRF), RXFP1 agonist activity
Type: cell-based
Conditions: for EC50: OVCAR5 cells, cAMP HTRF, read-out: EC50 (nM), OVCAR 5 cells (cAMP); for Emax: OVCAR-5, read-out: EMax, OVCAR 5 cells (cAMP)
From the text: OVCAR5 cells expressing endogenous RXFP1 were used to test RXP1 agonist properties of peptides of the invention, and in particular of the peptides of sequence SEQ ID NO: 1-193.
Since RXFP1 is a Gs coupled GPCR, cAMP was used as readout of RXFP1 activation.
Isobutyl Methyl Xanthine (IBMX) was used to inhibit phosphodiesterase activity facilitating cAMP measurements. HTRF (Homogenous Time Resolved Fluorescence) technology was used to detect cAMP due to its great sensitivity.
In summary, OVCAR5 were grown in regular medium (RPMI) containing 10% fetal calf serum (FCS) and 1% antibiotics (penicillin/streptomycin).
Before the experiments, cells were detached with accutase and incubated for 40 minutes at 37° C. with 1 mM (3-isobutyl-1-methylxanthine) IBMX.
Cells were then distributed in 384 black well plates containing increasing concentrations of the different peptides in a fix volume of medium (without FCS).
After an incubation of 30 min at 37° C. in an humid incubator in 5% CO2, the reaction was stopped by adding a fixed volume of a solution containing a lysis buffer and cAMP-D2 (cAMP labeled with the dye d2) and the anti cAMP antibody linked to Europium and used for cAMP detection.
Readout of the experiment were performed on a fluorimeter allowing HTRF measurement. Activation curves were generated by plotting the intracellular value of cAMP versus log 10 of the compound concentration.
The 50% activation concentration (EC50) was calculated by nonlinear regression using the sigmoidal dose-response (variable slope) equation with Prism 5 software.
Emax % is determined as the maximal intracellular value of cAMP for test compound (upper limit of cAMP vs concentration curve) divided by the maximal intracellular value of cAMP for H2-relaxin determined in the same test occasion multiplied by 100. Emax %=100×[cAMPtest cpd]/[cAMPH2-RlX]

[1] = maximal cAMP relative to H2-relaxin maximum (100%)

Row | Molecule | EC50 [nM] | EMax, OVCAR 5 cells (cAMP) [1] [%] | Emax [1] [%]
1 | 127 (Ac-LEGREKVRAK(Ac)I[Aib][Aib]EG[Nle]STWS[Aib]RKLK([PEG2″-PEG2″-PEG2″-γGlu-γGlu-γGlu-Stearoyl])-NH2) [compound 127] | 4.4 | 88 | –
2 | 174 (Ac-LEGREKVRAQI[Aib][Aib]EG[Nle]STWS[Aib]RKKK-NH2; not fully specified (residue 25); printed as Ac-L-E-G-R-E-K-V-R-A-Q-I-Aib-Aib-E-G-Nle-S-T-W-S-Aib-R-K-K-K(PEG2-PEG2-PEG2-gE-gE-gE-Stea)-NH2) [compound 174] | 0.41 | – | –
3 | CCCCCCCCCCCCCCCC(=O)NCCCC[C@H](NC(=O)[C@H](CCCCN)NC(=O)[C@H](CCCNC(=N)N)NC(=O)C(C)(C)NC(=O)[C@H](CO)NC(=O)[C@H](Cc1c[nH]c2ccccc12)NC(=O)[C@@H](NC(=O)[C@H](CO)NC(=O)[C@H](CCCC)NC(=O)CNC(=O)[C@H](CCC(=O)O)NC(=O)C(C)(C)NC(=O)C(C)(C)NC(=O)[C@@H](NC(=O)[C@H](C)NC(=O)[C@H](C)NC(=O)[C@H](CCCNC(=N)N)NC(=O)[C@@H](NC(=O)[C@H](CCCCN)NC(=O)[C@H](CCC(=O)O)NC(=O)[C@H](CCCNC(=N)N)NC(=O)CNC(=O)[C@H](CCC(=O)O)NC(=O)[C@H](CC(C)C)NC(C)=O)C(C)C)[C@@H](C)CC)[C@@H](C)O)C(N)=O [compound 1] (Ac-LEGREKVRAAI[Aib][Aib]EG[Nle]STWS[Aib]RKK(Palmitoyl)-NH2) | – | – | 85
4 | CCCCCCCCCCCCCCCC(=O)N[C@@H](CCC(=O)NCCCC[C@H](NC(=O)[C@H](CCCCN)NC(=O)[C@H](CCCNC(=N)N)NC(=O)C(C)(C)NC(=O)[C@H](CO)NC(=O)[C@H](Cc1c[nH]c2ccccc12)NC(=O)[C@@H](NC(=O)[C@H](CO)NC(=O)[C@H](CCCC)NC(=O)CNC(=O)[C@H](CCC(=O)O)NC(=O)C(C)(C)NC(=O)C(C)(C)NC(=O)[C@@H](NC(=O)[C@H](CCC(N)=O)NC(=O)[C@H](C)NC(=O)[C@H](CCCNC(=N)N)NC(=O)[C@@H](NC(=O)[C@H](CCCCN)NC(=O)[C@H](CCC(=O)O)NC(=O)[C@H](CCCNC(=N)N)NC(=O)CNC(=O)[C@H](CCC(=O)O)NC(=O)[C@H](CC(C)C)NC(C)=O)C(C)C)[C@@H](C)CC)[C@@H](C)O)C(N)=O)C(=O)O [compound 2] (Ac-LEGREKVRAQI[Aib][Aib]EG[Nle]STWS[Aib]RKK([γGlu-Palmitoyl])-NH2) | – | – | 100
5 | CCCCCCCCCCCCCCCCCC(=O)N[C@@H](CCC(=O)NCCCC[C@H](NC(=O)[C@H](CCCCN)NC(=O)[C@H](CCCNC(=N)N)NC(=O)C(C)(C)NC(=O)[C@H](CO)NC(=O)[C@H](Cc1c[nH]c2ccccc12)NC(=O)[C@@H](NC(=O)[C@H](CO)NC(=O)[C@H](CCCC)NC(=O)CNC(=O)[C@H](CCC(=O)O)NC(=O)C(C)(C)NC(=O)C(C)(C)NC(=O)[C@@H](NC(=O)[C@H](CCC(N)=O)NC(=O)[C@H](C)NC(=O)[C@H](CCCNC(=N)N)NC(=O)[C@@H](NC(=O)[C@H](CCCCN)NC(=O)[C@H](CCC(=O)O)NC(=O)[C@H](CCCNC(=N)N)NC(=O)CNC(=O)[C@H](CCC(=O)O)NC(=O)[C@H](CC(C)C)NC(C)=O)C(C)C)[C@@H](C)CC)[C@@H](C)O)C(N)=O)C(=O)O [compound 3] (Ac-LEGREKVRAQI[Aib][Aib]EG[Nle]STWS[Aib]RKK([γGlu-Stearoyl])-NH2) | – | – | 93
6 | CCCCCCCCCCCCCCCC(=O)N[C@@H](CCC(=O)N[C@@H](CCC(=O)NCCCC[C@H](NC(=O)[C@H](CCCCN)NC(=O)[C@H](CCCNC(=N)N)NC(=O)C(C)(C)NC(=O)[C@H](CO)NC(=O)[C@H](Cc1c[nH]c2ccccc12)NC(=O)[C@@H](NC(=O)[C@H](CO)NC(=O)[C@H](CCCC)NC(=O)CNC(=O)[C@H](CCC(=O)O)NC(=O)C(C)(C)NC(=O)C(C)(C)NC(=O)[C@@H](NC(=O)[C@H](C)NC(=O)[C@H](C)NC(=O)[C@H](CCCNC(=N)N)NC(=O)[C@@H](NC(=O)[C@H](CCCCN)NC(=O)[C@H](CCC(=O)O)NC(=O)[C@H](CCCNC(=N)N)NC(=O)CNC(=O)[C@H](CCC(=O)O)NC(=O)[C@H](CC(C)C)NC(=O)[C@H](CCC(=O)O)NC(C)=O)C(C)C)[C@@H](C)CC)[C@@H](C)O)C(N)=O)C(=O)O)C(=O)O [compound 4] (Ac-ELEGREKVRAAI[Aib][Aib]EG[Nle]STWS[Aib]RKK([γGlu-γGlu-Palmitoyl])-NH2) | – | – | 99
7 | CCCCCCCCCCCCCCCC(=O)N[C@@H](CCC(=O)N[C@@H](CCC(=O)NCCCC[C@H](NC(=O)[C@H](CCCNC(=N)N)NC(=O)C(C)(C)NC(=O)[C@H](CO)NC(=O)[C@H](Cc1c[nH]c2ccccc12)NC(=O)[C@@H](NC(=O)[C@H](CO)NC(=O)[C@H](CCSC)NC(=O)CNC(=O)[C@H](CCC(=O)O)NC(=O)C(C)(C)NC(=O)C(C)(C)NC(=O)[C@@H](NC(=O)[C@H](CCC(N)=O)NC(=O)[C@H](C)NC(=O)[C@H](CCCNC(=N)N)NC(=O)[C@@H](NC(=O)[C@H](CCCCN)NC(=O)[C@H](CCC(=O)O)NC(=O)[C@H](CCCNC(=N)N)NC(=O)CNC(=O)[C@H](CCC(=O)O)NC(=O)[C@H](CC(C)C)NC(C)=O)C(C)C)[C@@H](C)CC)[C@@H](C)O)C(N)=O)C(=O)O)C(=O)O [compound 5] (Ac-LEGREKVRAQI[Aib][Aib]EGMSTWS[Aib]RK([γGlu-γGlu-Palmitoyl])-NH2) | – | – | 105
8 | CCCCCCCCCCCCCCCC(=O)N[C@@H](CCC(=O)N[C@@H](CCC(=O)N[C@@H](CCC(=O)NCCCC[C@H](NC(=O)[C@H](CCCCN)NC(=O)[C@H](CCCCN)NC(=O)[C@H](CCCNC(=N)N)NC(=O)C(C)(C)NC(=O)[C@H](CO)NC(=O)[C@H](Cc1c[nH]c2ccccc12)NC(=O)[C@@H](NC(=O)[C@H](CO)NC(=O)[C@H](CCCC)NC(=O)CNC(=O)[C@H](CCC(=O)O)NC(=O)C(C)(C)NC(=O)C(C)(C)NC(=O)[C@@H](NC(=O)[C@H](C)NC(=O)[C@H](C)NC(=O)[C@H](CCCNC(=N)N)NC(=O)[C@@H](NC(=O)[C@H](CCCCN)NC(=O)[C@H](CCC(=O)O)NC(=O)[C@H](CCCNC(=N)N)NC(=O)CNC(=O)[C@H](CCC(=O)O)NC(=O)[C@H](CC(C)C)NC(=O)[C@H](CCC(=O)O)NC(C)=O)C(C)C)[C@@H](C)CC)[C@@H](C)O)C(N)=O)C(=O)O)C(=O)O)C(=O)O [compound 6] (Ac-ELEGREKVRAAI[Aib][Aib]EG[Nle]STWS[Aib]RKKK([γGlu-γGlu-γGlu-Palmitoyl])-NH2) | – | – | 100
9 | CCCCCCCCCCCCCCCC(=O)N[C@@H](CCC(=O)N[C@@H](CCC(=O)N[C@@H](CCC(=O)NCCCC[C@H](NC(=O)[C@H](CCCCN)NC(=O)[C@H](CCCNC(=N)N)NC(=O)C(C)(C)NC(=O)[C@H](CO)NC(=O)[C@H](Cc1c[nH]c2ccccc12)NC(=O)[C@@H](NC(=O)[C@H](CO)NC(=O)[C@H](CCCC)NC(=O)CNC(=O)[C@H](CCC(=O)O)NC(=O)C(C)(C)NC(=O)C(C)(C)NC(=O)[C@@H](NC(=O)[C@H](CCC(N)=O)NC(=O)[C@H](C)NC(=O)[C@H](CCCNC(=N)N)NC(=O)[C@@H](NC(=O)[C@H](CCCCN)NC(=O)[C@H](CCC(=O)O)NC(=O)[C@H](CCCNC(=N)N)NC(=O)CNC(=O)[C@H](CCC(=O)O)NC(=O)[C@H](CC(C)C)NC(C)=O)C(C)C)[C@@H](C)CC)[C@@H](C)O)C(N)=O)C(=O)O)C(=O)O)C(=O)O [compound 8] (Ac-LEGREKVRAQI[Aib][Aib]EG[Nle]STWS[Aib]RKK([γGlu-γGlu-γGlu-Palmitoyl])-NH2) | 26.7 | – | 98
